Data from PubChem BioAssay (NCI).
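96-well plates; 48 h exposure; 5 concentrations. Endpoints by linear interpolation between flanking doses. Not reached: highest tested concentration assigned. Abbreviation: GI50, concentration required for 50% inhibition of growth. TGI: concentration producing complete growth inhibition.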

Columns and labels:
Assay in all cases: DTP human tumour cell line panel, 48 h; in the data active = GI50 below about 0.43 µM; inactive = the rest
PC-3 prostate = tested on: PC-3 prostate
UACC-62 melanoma = tested on: UACC-62 melanoma
UO-31 renal = tested on: UO-31 renal
TK-10 renal = tested on: TK-10 renal
COLO 205 colon = tested on: COLO 205 colon
HCC-2998 colon = tested on: HCC-2998 colon
HCT-116 colon = tested on: HCT-116 colon
CCRF-CEM leukemia = tested on: CCRF-CEM leukemia
NCI-H522 lung = tested on: NCI-H522 lung
OVCAR-8 ovarian = tested on: OVCAR-8 ovarian
RXF 393 renal = tested on: RXF 393 renal
SW-620 colon = tested on: SW-620 colon
UACC-257 melanoma = tested on: UACC-257 melanoma
SK-MEL-28 melanoma = tested on: SK-MEL-28 melanoma
SNB-19 CNS = tested on: SNB-19 CNS
SNB-75 CNS = tested on: SNB-75 CNS
HOP-62 NSCLC = tested on: HOP-62 NSCLC
MOLT-4 leukemia = tested on: MOLT-4 leukemia
K-562 leukemia = tested on: K-562 leukemia
SF-539 CNS = tested on: SF-539 CNS
HT29 colon = tested on: HT29 colon
U251 CNS = tested on: U251 CNS
M14 melanoma = tested on: M14 melanoma
BT-549 breast = tested on: BT-549 breast
NCI/ADR-RES ovarian = tested on: NCI/ADR-RES ovarian
NCI-H226 lung = tested on: NCI-H226 lung
MCF7 breast = tested on: MCF7 breast
ACHN renal = tested on: ACHN renal
SR leukemia = tested on: SR leukemia
OVCAR-5 ovarian = tested on: OVCAR-5 ovarian
NCI-H460 lung = tested on: NCI-H460 lung
HL-60(TB) leukemia = tested on: HL-60(TB) leukemia
RPMI-8226 leukemia = tested on: RPMI-8226 leukemia
HCT-15 colon = tested on: HCT-15 colon
OVCAR-3 ovarian = tested on: OVCAR-3 ovarian
NCI-H23 lung = tested on: NCI-H23 lung
786-0 renal = tested on: 786-0 renal
OVCAR-4 ovarian = tested on: OVCAR-4 ovarian
SN12C renal = tested on: SN12C renal
DU-145 prostate = tested on: DU-145 prostate
SK-MEL-5 melanoma = tested on: SK-MEL-5 melanoma
SF-268 CNS = tested on: SF-268 CNS
SK-OV-3 ovarian = tested on: SK-OV-3 ovarian
MALME-3M melanoma = tested on: MALME-3M melanoma
IGROV1 ovarian = tested on: IGROV1 ovarian
SF-295 CNS = tested on: SF-295 CNS
A549 NSCLC = tested on: A549 NSCLC
MDA-N = tested on: MDA-N
CAKI-1 renal = tested on: CAKI-1 renal
EKVX NSCLC = tested on: EKVX NSCLC
MDA-MB-231 breast = tested on: MDA-MB-231 breast
T-47D breast = tested on: T-47D breast
HOP-92 NSCLC = tested on: HOP-92 NSCLC
SK-MEL-2 melanoma = tested on: SK-MEL-2 melanoma
HS 578T breast = tested on: HS 578T breast
KM12 colon = tested on: KM12 colon
MDA-MB-435 = tested on: MDA-MB-435
LOX IMVI melanoma = tested on: LOX IMVI melanoma
A498 renal = tested on: A498 renal

N#CCCC(CC#N)N1CCN(C(CC#N)CCC#N)CC1 (stereo unspecified)
> 100 µM: TGI (PC-3 prostate) | TGI (UACC-62 melanoma) | TGI (UO-31 renal) | TGI (TK-10 renal) | TGI (COLO 205 colon) | TGI (HCC-2998 colon) | TGI (HCT-116 colon) | TGI (CCRF-CEM leukemia) | TGI (NCI-H522 lung) | TGI (OVCAR-8 ovarian) | TGI (RXF 393 renal) | TGI (SW-620 colon) | TGI (UACC-257 melanoma) | TGI (SK-MEL-28 melanoma) | TGI (SNB-19 CNS) | TGI (SNB-75 CNS) | TGI (HOP-62 NSCLC) | TGI (MOLT-4 leukemia) | TGI (K-562 leukemia) | TGI (SF-539 CNS) | TGI (HT29 colon) | TGI (U251 CNS) | TGI (M14 melanoma) | TGI (BT-549 breast) | TGI (NCI/ADR-RES ovarian) | TGI (NCI-H226 lung) | TGI (MCF7 breast) | TGI (ACHN renal) | TGI (SR leukemia) | TGI (OVCAR-5 ovarian) | TGI (NCI-H460 lung) | TGI (HL-60(TB) leukemia) | TGI (RPMI-8226 leukemia) | TGI (HCT-15 colon) | TGI (OVCAR-3 ovarian) | TGI (NCI-H23 lung) | TGI (786-0 renal) | TGI (OVCAR-4 ovarian) | TGI (SN12C renal) | TGI (DU-145 prostate) | TGI (SK-MEL-5 melanoma) | TGI (SF-268 CNS) | TGI (SK-OV-3 ovarian) | TGI (MALME-3M melanoma) | TGI (IGROV1 ovarian) | TGI (SF-295 CNS) | TGI (A549 NSCLC) | TGI (MDA-N) | TGI (CAKI-1 renal) | TGI (EKVX NSCLC)

Nc1nc2c(c3cnccc13)C(c1cccc(Br)c1)Cc1cnccc1-2 (stereo unspecified)
1.07 µM: TGI (COLO 205 colon)
15.2 µM: TGI (SNB-19 CNS)
2.97 µM: TGI (U251 CNS)
18.7 µM: TGI (MALME-3M melanoma)
3.45 µM: TGI (SK-MEL-5 melanoma)
14.1 µM: TGI (CCRF-CEM leukemia) | TGI (OVCAR-3 ovarian) | TGI (NCI-H23 lung)
15.7 µM: TGI (MDA-MB-231 breast)
active: GI50 (UACC-62 melanoma) 0.406 µM | GI50 (COLO 205 colon) 0.273 µM | GI50 (CCRF-CEM leukemia) 0.373 µM | GI50 (NCI-H522 lung) 0.214 µM | GI50 (T-47D breast) 0.411 µM | GI50 (RXF 393 renal) 0.288 µM | GI50 (SW-620 colon) 0.42 µM | GI50 (SNB-19 CNS) 0.41 µM | GI50 (SNB-75 CNS) 0.243 µM | GI50 (MOLT-4 leukemia) 0.418 µM | GI50 (K-562 leukemia) 0.346 µM | GI50 (SF-539 CNS) 0.235 µM | GI50 (SK-MEL-2 melanoma) 0.303 µM | GI50 (HT29 colon) 0.341 µM | GI50 (HS 578T breast) 0.423 µM | GI50 (U251 CNS) 0.342 µM | GI50 (M14 melanoma) 0.215 µM | GI50 (NCI/ADR-RES ovarian) 0.323 µM | GI50 (MCF7 breast) 0.324 µM | GI50 (MDA-MB-435) 0.154 µM | GI50 (SR leukemia) 0.243 µM | GI50 (NCI-H460 lung) 0.37 µM | GI50 (HL-60(TB) leukemia) 0.329 µM | GI50 (RPMI-8226 leukemia) 0.392 µM | GI50 (HCT-15 colon) 0.362 µM | GI50 (OVCAR-3 ovarian) 0.339 µM | GI50 (DU-145 prostate) 0.344 µM | GI50 (A498 renal) 0.233 µM | GI50 (SF-295 CNS) 0.271 µM | GI50 (CAKI-1 renal) 0.422 µM
12.7 µM: TGI (SNB-75 CNS)
22.9 µM: TGI (SN12C renal)
1.95 µM: TGI (SF-295 CNS)
12.6 µM: TGI (786-0 renal)
21.5 µM: TGI (EKVX NSCLC)
12.3 µM: TGI (RPMI-8226 leukemia)
5.48 µM: TGI (BT-549 breast)
27 µM: TGI (UACC-257 melanoma)
11.5 µM: TGI (NCI-H460 lung)
10.5 µM: TGI (HCT-15 colon)
12.5 µM: TGI (ACHN renal)
1.91 µM: TGI (SK-MEL-2 melanoma)
0.953 µM: TGI (RXF 393 renal)
0.821 µM: TGI (SF-539 CNS)
> 100 µM: TGI (SR leukemia)
0.62 µM: TGI (NCI-H522 lung)
14.2 µM: TGI (UACC-62 melanoma)
17.4 µM: TGI (SW-620 colon) | TGI (K-562 leukemia)
0.824 µM: TGI (A498 renal)
16.7 µM: TGI (HOP-92 NSCLC)
inactive: GI50 (PC-3 prostate) 0.46 µM | GI50 (UO-31 renal) 1.2 µM | GI50 (TK-10 renal) 0.613 µM | GI50 (HCC-2998 colon) 3.62 µM | GI50 (HCT-116 colon) 0.442 µM | GI50 (MDA-MB-231 breast) 1.11 µM | GI50 (OVCAR-8 ovarian) 0.78 µM | GI50 (UACC-257 melanoma) 12.1 µM | GI50 (SK-MEL-28 melanoma) 3.81 µM | GI50 (HOP-62 NSCLC) 0.465 µM | GI50 (HOP-92 NSCLC) 0.639 µM | GI50 (KM12 colon) 0.436 µM | GI50 (BT-549 breast) 0.526 µM | GI50 (NCI-H226 lung) 0.949 µM | GI50 (ACHN renal) 1.1 µM | GI50 (OVCAR-5 ovarian) 0.875 µM | GI50 (NCI-H23 lung) 0.635 µM | GI50 (786-0 renal) 0.482 µM | GI50 (OVCAR-4 ovarian) 1.73 µM | GI50 (SN12C renal) 0.877 µM | GI50 (SK-MEL-5 melanoma) 0.475 µM | GI50 (SF-268 CNS) 0.852 µM | GI50 (SK-OV-3 ovarian) 0.586 µM | GI50 (LOX IMVI melanoma) 0.427 µM | GI50 (MALME-3M melanoma) 0.515 µM | GI50 (IGROV1 ovarian) 0.85 µM | GI50 (A549 NSCLC) 0.627 µM | GI50 (EKVX NSCLC) 0.487 µM
18.9 µM: TGI (HOP-62 NSCLC) | TGI (NCI-H226 lung)
11.3 µM: TGI (DU-145 prostate)
14 µM: TGI (PC-3 prostate)
13.6 µM: TGI (TK-10 renal) | TGI (KM12 colon) | TGI (A549 NSCLC)
15.5 µM: TGI (UO-31 renal)
10.2 µM: TGI (NCI/ADR-RES ovarian)
21.8 µM: TGI (OVCAR-5 ovarian)
0.961 µM: TGI (HL-60(TB) leukemia)
17.1 µM: TGI (SK-OV-3 ovarian)
0.571 µM: TGI (MDA-MB-435)
18.3 µM: TGI (SF-268 CNS)
14.4 µM: TGI (CAKI-1 renal)
12.1 µM: TGI (MOLT-4 leukemia)
13.7 µM: TGI (LOX IMVI melanoma)
20.3 µM: TGI (SK-MEL-28 melanoma)
11.4 µM: TGI (HCT-116 colon)
1.79 µM: TGI (HT29 colon)
12.2 µM: TGI (MCF7 breast)
29.2 µM: TGI (HS 578T breast)
0.615 µM: TGI (M14 melanoma)
17.8 µM: TGI (IGROV1 ovarian)
40.4 µM: TGI (T-47D breast)
44.6 µM: TGI (OVCAR-8 ovarian)
34.1 µM: TGI (OVCAR-4 ovarian)
18.8 µM: TGI (HCC-2998 colon)
